Data published in patent US20240189264A1 (priority 2024, published 2024).

CC(C)NCC(O)COc1ccc(CC(N)=O)cc1 (centres unmarked) [Atenolol]
C-reactive protein (CRP) level (in words) (patients taking atenolol single dose): significantly high
response of hypertensive patients to atenolol (single dose of 100 mg atenolol, oral administration): mostly respond
